Data from US20020055470A1, “Circumvention of human tumor drug resistance” (CITY OF HOPE, priority 1987, published 2002).
Read-outs that look alike come from different tables or passages of the source.

Experiments:
Type in all cases: cell-based, human
A2780S = assay: Inhibition of cell growth (cells counted on Coulter Counter after six days)
Method: The experiment was conducted in triplicate in the manner described with respect to Table I.
A2780 cells were well-plated (35 mm disnes) and 24 hours later the cells were treated with cisplatin for one hour, washed out and then treated with 6 concentrations of from 1 μM to 100 μM increased in equal increments of a nucleoside analog in saline. Cells were then washed and incubated for six days. The cells were counted on a Coulter Counter and the experiment was done in triplicate.
(§1) Table VI includes EC50 data further exemplifying the invention. The data reported by Table VI was obtained by substantially the same procedure as that described with respect to Table III. In Table VI, “(C)” indicates continuous exposure, “(1 h)” and “(2 h)” indicate exposure for 1 hour and 2 hours; “HU” indicates hydroxyurea.

A2780DDP [1] = assay: as above; conditions: for Ratio (degree of resistance or cross-resistance): A2780DDP vs A2780S EC50
Method: The experiment was conducted in triplicate in the manner described with respect to Table I. […]
as §1

A2780DDP [2] = assay: Dual labeled (14C/3H) DNA synthesis and degradation in response to cisplatin; incorporation of labelled nucleoside analogs; conditions: A2780DDP
Excerpt: A dual labeled (^14C/^3H) experiment was designed to measure simultaneously DNA synthesis and degradation in response to cisplatin.

HCT8DDP = assay: Inhibition of cell growth (cells counted on Coulter Counter after six days); conditions: HCT8-DDP, read-out: EC50
Method: as §1

HCT8S = assay: as above; conditions: read-out: EC50
Method: as §1

HCF7S = assay: Inhibition of cell growth, Table VI
HCF-7 DDP = assay: Inhibition of cell growth, Table VI; conditions: HCF-7 DDP
Method: as §1

K562-araC = assay: Inhibition of cell growth, Table VI; conditions: K562-araC
Method: as §1

K562S = assay: Inhibition of cell growth, Table VI
Method: as §1

K562-DDP = assay: Inhibition of cell growth, Table VI; conditions: for EC50: K562-DDP
K562-VP16 = assay: Inhibition of cell growth, Table VI
[3] = continuous exposure, proliferation during 6 days, mean + SD, read-out: EC50 A2780S
[4] = continuous exposure, proliferation during 6 days, mean + SD, read-out: EC50 A2780DDP
[5] = 0 min after cisplatin (20 μM) treatment
[6] = 45 min after cisplatin (20 μM) treatment
[7] = 90 min after cisplatin (20 μM) treatment
[8] = 180 min after cisplatin (20 μM) treatment
[9] = A2780S, (C) continuous exposure, read-out: EC50
[10] = A2780 DDP, (C) continuous exposure, read-out: EC50
[11] = Homo sapiens, (C) continuous exposure

EC50 (K562-araC; (C) continuous exposure) [µM] | EC50 (K562S; (C) continuous exposure) [µM] | EC50 (K562-DDP; (C) continuous exposure) [µM] | EC50 (K562-VP16; (C) continuous exposure) [µM] | Compound | EC50 (A2780S; [3]) [µM] | Ratio (degree of resistance or cross-resistance) (A2780DDP [1]; continuous exposure) | EC50 (A2780DDP [1]; [4]) [µM] | Incorporation of labelled nucleoside analog into macromolecules (A2780DDP [2]; [5]) | Incorporation of labelled nucleoside analog into macromolecules (A2780DDP [2]; [6]) | Incorporation of labelled nucleoside analog into macromolecules (A2780DDP [2]; [7]) | Incorporation of labelled nucleoside analog into macromolecules (A2780DDP [2]; [8]) | EC50 (A2780S; [9]) [µM] | EC50 (A2780DDP [1]; [10]) [µM] | EC50 (HCT8DDP; (C) continuous exposure) [µM] | EC50 (HCT8S; (C) continuous exposure) [µM] | EC50 (HCF7S; (C) continuous exposure) [µM] | EC50 (HCF-7 DDP; (C) continuous exposure) [µM] | also measured
36 | 37.5 | 28 | 35 | Nc1ncnc2c1ncn2[C@H]1CC[C@@H](CO)O1 [ddA, 2′3′-dideoxyadenosine] | – | – | – | – | – | – | – | 10 | 25 | 36 | 33 | 30 | 30 | –
150 | 160 | 190 | 170 | Nc1nc2c(ncn2[C@H]2CC[C@@H](CO)O2)c(=O)[nH]1 [ddG, 2′,3′-dideoxyquanosene] | – | – | – | – | – | – | – | 60 | 110 | 45 | 35 | 210 | 180 | –

Second part, the molecule before the results:

Compound | EC50 (K562-araC; (C) continuous exposure) [µM] | EC50 (K562S; (C) continuous exposure) [µM] | EC50 (K562-DDP; (C) continuous exposure) [µM] | EC50 (K562-VP16; (C) continuous exposure) [µM] | EC50 (A2780S; [3]) [µM] | Ratio (degree of resistance or cross-resistance) (A2780DDP [1]; continuous exposure) | EC50 (A2780DDP [1]; [4]) [µM] | Incorporation of labelled nucleoside analog into macromolecules (A2780DDP [2]; [5]) | Incorporation of labelled nucleoside analog into macromolecules (A2780DDP [2]; [6]) | Incorporation of labelled nucleoside analog into macromolecules (A2780DDP [2]; [7]) | Incorporation of labelled nucleoside analog into macromolecules (A2780DDP [2]; [8]) | EC50 (A2780S; [9]) [µM] | EC50 (A2780DDP [1]; [10]) [µM] | EC50 (HCT8DDP; (C) continuous exposure) [µM] | EC50 (HCT8S; (C) continuous exposure) [µM] | EC50 (HCF7S; (C) continuous exposure) [µM] | EC50 (HCF-7 DDP; (C) continuous exposure) [µM] | also measured
Nc1ncnc2c1ncn2[C@@H]1O[C@H](CO)[C@@H](O)[C@@H]1O [araA] | – | – | – | – | 16.2 | +4.0 | 64.7 | 19.01 | 24.21 | 27.91 | 32.70 | – | – | – | – | – | – | –
Nc1ccn([C@@H]2O[C@H](CO)[C@@H](O)[C@@H]2O)c(=O)n1 [araC] | – | – | – | – | 0.1 | +45.0 | 4.5 | – | – | – | – | – | – | – | – | – | – | EC50 (A2780S; A2780S, (2h) exposure, read-out: EC50): 0.1 µM; EC50 (A2780DDP [1]; A2780 DDP, (2h) exposure, read-out: EC50): 4.5 µM; EC50 (HCT8DDP; (2h) exposure): 79 µM; EC50 (HCT8S; (2h) exposure): 29 µM; EC50 (HCF7S; (2h) exposure): 2.5 µM; EC50 (HCF-7 DDP; (2h) exposure): 5 µM; EC50 (K562-araC; (2h) exposure): 8 µM; EC50 (K562S; (2h) exposure): 0.3 µM; EC50 (K562-DDP; (2h) exposure): 0.3 µM; EC50 (K562-VP16; (2h) exposure): 8 µM
Nc1ccn([C@H]2CC[C@@H](CO)O2)c(=O)n1 [ddC, dideoxycytidine] | – | – | – | – | – | +2.6 | – | 15.09 | 36.94 | 42.61 | 45.93 | – | – | – | – | – | – | EC50 (A2780S; Homo sapiens, A2780S, 144 h, continuous exposure, proliferation during 6 days, mean + SD, read-out: EC50 A2780S): 1.5 µM; EC50 (A2780S; Homo sapiens, A2780S, (C) continuous exposure, read-out: EC50): 1.5 µM; EC50 (A2780DDP [1]; Homo sapiens, 144 h, continuous exposure, proliferation during 6 days, mean + SD, read-out: EC50 A2780DDP): 4 µM; EC50 (A2780DDP [1]; Homo sapiens, A2780 DDP, (C) continuous exposure, read-out: EC50): 4 µM; EC50 (HCT8DDP; [11]): 23 µM; EC50 (HCT8S; [11]): 2 µM; EC50 (HCF7S; [11]): 2.5 µM; EC50 (HCF-7 DDP; [11]): > 100 µM; EC50 (K562-araC; [11]): > 300 µM; EC50 (K562S; [11]): 25 µM; EC50 (K562-DDP; [11]): 5 µM; factor more sensitive, cispt resistant vs sensitive K562 cells (K562-DDP; K562 human leukemia cells): 5; EC50 (K562-VP16; [11]): 100 µM
Cc1cn([C@H]2CC[C@@H](CO)O2)c(=O)[nH]c1=O [ddT, 2′,3′-dideoxythymidine] | > 400 | > 400 | > 400 | 200 | – | – | – | – | – | – | – | 110 | > 750 | > 500 | > 150 | > 500 | > 500 | –
